The results in this text go back to US10213494B2, “Treatment of synucleinopathies” (The Brigham and Women's Hospital, Inc., priority 2007, dated 2019).

Series [1] concerns MES-syn cells. As to the kind of experiment: MTT assay of cellular metabolism. The series is classed as cell-based, rodent. The following applies: CTSD cDNA 5 μg/10 cm dish; control vector 100+/−4.05%; n=6. How it is done: To confirm that the effect of Cathepsin D on lowering of αS in MES23.5 cells was specific and was not caused by a general decrease in cellular metabolism and integrity, the MTT and LDH assays were performed on MES-syn cells that had been co-transfected with the highest amount of Cathepsin D-encoding cDNA (5 μg/10 cm dish). Lysis of cells with 0.1% Triton-X® 100 served as a positive control, representing maximal cell death.
Background: Tetrazolium dyes change colour on reduction, which living cells bring about.

Series [2] deals with A30P, E46K, A53T, S129D, S129A and DQ/AA variants of α-synuclein in MES23.5 cells. Description: Sandwich ELISA of mutant α-synuclein variants in MES23.5 cells co-transfected with CTSD cDNA. The following applies: cathepsin D cDNA 5 μg/10 cm dish. The series is classed as cell-based, human. How it is done:
Sera from six rabbits were raised and affinity-purified at Open Biosystems, Inc. (openbiosystems.com) against recombinant, full-length human αS. Recombinant αS had been HPLC- and MS-characterized and subjected to amino acid composition and protein concentration analyses. For ELISA, 384-well MaxiSorp plates (Nunc, Inc) were coated with 50 μl/well capturing polyclonal Ab (hSA-2) diluted in coating buffer (NaHCO3 with 0.2% NaN3, pH 9.6). Following washes with PBS/0.05% Tween-20 (PBS-T), plates were blocked for 2 hours at 37° C. in blocking buffer (1.125% fish skin gelatin; PBS-T). After 4 washes, samples were loaded and incubated at 4° C. for 12 hours. Biotinylated Syn-1 mAb (as the assaying Ab) was generated using 200 μg Sulfo-NHS-LC Biotin (Pierce), diluted in blocking buffer and added to the plate for 2 hours at 37° C. Following 4 washes, ExtrAvidin phosphatase (Sigma) diluted in blocking buffer was applied for 1 hr at 37° C. Color development was carried out by using Fast-p-Nitrophenyl Phosphate (Sigma) and monitored kinetically at OD 405 nm every 5 minutes for up to 60 minutes.
To examine whether Cathepsin D could also reduce the levels of missense mutation-carrying αS proteins, MES23.5 cells were transfected with low amounts (0.5 μg/10 cm dish) of SNCA cDNA encoding either the A30P, E46K or A53T variants of α-synuclein which are linked to familial Parkinson Disease in humans, as well as a S129D and a S129A mutant. Phosphorylation of αS at the Serine 129 residue is known to be a pathological hallmark of αS aggregates in vivo (Anderson J et al., 2006, J Biol Chem, 281:29739-29752). Mutation of a Ser residue to Asp is known in the art to mimic sustained, serine-based phosphorylation. The S129A mutant, a phosphorylation-incompetent mutant of αS, was also included for comparison.
As shown in the bar graph of FIG. 7, the co-expression of Cathepsin D-encoding CTSD cDNA (5 μg/10 cm dish) with either A30P, E46K, A53T, S129D, or S129A αS caused a similar degree reduction in αS levels for all αS proteins examined, when compared to their co-expression with empty vector DNA. When comparing the changes in α-synuclein steady-state to well-characterized levels of recombinant α-synuclein protein that was loaded in parallel, it was estimated that cathepsin D over-expression (at a cDNA concentration of 5 μg/10 cm dish) led to intracellular α-synuclein levels that were 23.98+/−3.57%, 33.08+/−18.51%, 39.21+/−14.63%, 34.84+/−11.36% and 34.31+/−13.39% of cognate control levels, for A30P, E46K, A53T, S129D, or S129A αS polypeptides, respectively (n=2 (−3) from 2-3 independent experiments).
Of note, residues D98 and Q99 of αS represent the motif by which αS is recognized by the Lamp2a receptor during chaperone mediated autophagy (CMA); Cuervo et al, 2004, Science, vol 305, pp 1292-1295). To investigate the importance of this motif in the αS-lowering action induced by cathepsin D, MES 23.5 cells were also transfected with a cDNA (0.5 μg/10 cm dish) encoding a mutant αS variant, where the D98 and Q99 residues had both been changed to Alanine (A) by site-directed mutagenesis (i.e., DQ/AA-variant of αS). When comparing the changes in the DQ/AA-αS steady-state to well-characterized levels of recombinant α-synuclein protein that were loaded in parallel, it was estimated that cathepsin D over-expression (5 μg/10 cm dish) led to intracellular DQ/AA αS levels that were 22.14+/−5.32% of the vector control levels, (n=3, from 3 independent experiments; not shown).
In general terms: In an ELISA, binding on a coated surface is turned into a signal by an enzyme label.

Series [3] relates to α-synuclein protein in MES23.5 cells. Description: Western blot of α-synuclein in co-transfected MES23.5 cells. The series is classed as cell-based, human. The following applies: co-expression with αS for 24 hours; syn-1, 7071AP and hSA-2 antibodies. As to the method: Cells were transfected with 0, 0.25, 0.5, 1, 5, and 10 μg (per 10 cm dish) of plasmid. 24 hours later, cells were washed with Tris-buffered saline and lysed in 140 mM NaCl, 50 mM Tris-Hcl, pH 8.0, 1 mM EDTA, 0.5% Triton-X100, and 1× protease inhibitors. Lysates were centrifuged at 100,000×g for 30 min at 4° C.; the top 2/3 of supernatants were removed and frozen in siliconized tubes at −80° C. Samples were run on SDS/PAGE, using 1 mM DTT as the reducing agent. Expression of the αS protein was confirmed at 24 hours post-transfection by Western blotting, where cell lysates were probed with a monoclonal antibody against αS protein (syn-1 antibody, BD Transduction Labs).
MES23.5 cells were transfected with 0.5 μg αS-encoding SNCA cDNA per 10 cm dish plus either 1.25, 2.5 or 5 μg (low, medium, or high) GBA-encoding cDNA in the absence or presence of 5 μg of Prosaposin-encoding cDNA. All arms of the experiment were balanced up to a total of 10.5 μg cDNA per 10 cm dish using empty vector cDNA. The GBA- and Prosaposin-encoding cDNA plasmids under a CMV promoter, as well as the pCMV-XL5 empty vector were purchased from OriGene Technologies, Inc (clones had been fully sequence-verified after isolation and a maxiprep). 24 hours later, cells were lysed and probed for GBA and αS protein levels. The upper panel in of FIG. 2B3 is a representation of a Western Blot indicating expression of GBA protein in the absence and presence of co-transfected prosaposin. GBA was probed using the monoclonal antibody 8E4. GBA over-expression occurred in a slightly gene-dosage dependent way in the absence of prosaposin. In the presence of prosaposin over-expression, the GBA signal itself was decreased. […]

Turning to “cathepsin D: human lysosomal aspartyl protease expressed from CTSD cDNA plasmid under a CMV promoter”, the MTT signal in series [1] was 101.3+/−3.91%. Further, the “intracellular α-synuclein level, % of cognate control levels” value in series [2] (A30P αS) is recorded as 23.98+/−3.57%; in series [2] (A53T αS), 39.21+/−14.63%; in series [2] (E46K αS), 33.08+/−18.51%; in series [2] (S129A αS) it was 34.31+/−13.39%; in series [2] (S129D αS) it was 34.84+/−11.36%. The “intracellular DQ/AA αS level, % of vector control levels” value in series [2] (DQ/AA αS (D98A/Q99A), n=3) was 22.14+/−5.32%. The “generation of lower or higher molecular weight αS species” value in series [3] is reported as “did not lead to the generation of any visible lower or higher molecular weight species”.
